In ChEMBL document CHEMBL5465560, “Selectivity Literature for EUbOPEN Chemogenomic Library” (2024) one finds % of inhibition and % of control data, which are given here for seven compounds.

Molecules are shown by their SMILES.

The subject of assay [1] is Fibroblast growth factor receptor 1 (Homo sapiens), P11362 [V561M]. The assay can be described thus: Selectivity interaction (LanthaScreen Eu Kinase Binding Assay) EUB0001632a FGFR1. The following applies: at 10 µM. (Time-resolved FRET reads energy transfer from a long-lived donor to a nearby acceptor.)
The test system of assay [2] is Epidermal growth factor receptor (Homo sapiens), P00533 [G719C]. The experiment in a line: (§1) Selectivity interaction (KinomeScan (DiscoverX)) EUB0001619a EGFR. The following applies: at 1 µM.
Assay [3] concerns Epidermal growth factor receptor (Homo sapiens), P00533 [L858R]. The description is as §1. To be noted: at 1 µM.
Assay [4] addresses Epidermal growth factor receptor (Homo sapiens, UniProt P00533). The assay is described as §1. The following applies: at 1 µM.
Assay [5] has as its system Epidermal growth factor receptor (Homo sapiens), P00533 [UNDEFINED MUTATION]. The assay is described as §1. The following applies: at 1 µM.
The test system of assay [6] is Epidermal growth factor receptor (Homo sapiens), P00533 [G719S]. The assay is described as §1. The following applies: at 1 µM.
Sequence of Epidermal growth factor receptor (Homo sapiens), P00533 [G719S] (P00533 whole entry G719S): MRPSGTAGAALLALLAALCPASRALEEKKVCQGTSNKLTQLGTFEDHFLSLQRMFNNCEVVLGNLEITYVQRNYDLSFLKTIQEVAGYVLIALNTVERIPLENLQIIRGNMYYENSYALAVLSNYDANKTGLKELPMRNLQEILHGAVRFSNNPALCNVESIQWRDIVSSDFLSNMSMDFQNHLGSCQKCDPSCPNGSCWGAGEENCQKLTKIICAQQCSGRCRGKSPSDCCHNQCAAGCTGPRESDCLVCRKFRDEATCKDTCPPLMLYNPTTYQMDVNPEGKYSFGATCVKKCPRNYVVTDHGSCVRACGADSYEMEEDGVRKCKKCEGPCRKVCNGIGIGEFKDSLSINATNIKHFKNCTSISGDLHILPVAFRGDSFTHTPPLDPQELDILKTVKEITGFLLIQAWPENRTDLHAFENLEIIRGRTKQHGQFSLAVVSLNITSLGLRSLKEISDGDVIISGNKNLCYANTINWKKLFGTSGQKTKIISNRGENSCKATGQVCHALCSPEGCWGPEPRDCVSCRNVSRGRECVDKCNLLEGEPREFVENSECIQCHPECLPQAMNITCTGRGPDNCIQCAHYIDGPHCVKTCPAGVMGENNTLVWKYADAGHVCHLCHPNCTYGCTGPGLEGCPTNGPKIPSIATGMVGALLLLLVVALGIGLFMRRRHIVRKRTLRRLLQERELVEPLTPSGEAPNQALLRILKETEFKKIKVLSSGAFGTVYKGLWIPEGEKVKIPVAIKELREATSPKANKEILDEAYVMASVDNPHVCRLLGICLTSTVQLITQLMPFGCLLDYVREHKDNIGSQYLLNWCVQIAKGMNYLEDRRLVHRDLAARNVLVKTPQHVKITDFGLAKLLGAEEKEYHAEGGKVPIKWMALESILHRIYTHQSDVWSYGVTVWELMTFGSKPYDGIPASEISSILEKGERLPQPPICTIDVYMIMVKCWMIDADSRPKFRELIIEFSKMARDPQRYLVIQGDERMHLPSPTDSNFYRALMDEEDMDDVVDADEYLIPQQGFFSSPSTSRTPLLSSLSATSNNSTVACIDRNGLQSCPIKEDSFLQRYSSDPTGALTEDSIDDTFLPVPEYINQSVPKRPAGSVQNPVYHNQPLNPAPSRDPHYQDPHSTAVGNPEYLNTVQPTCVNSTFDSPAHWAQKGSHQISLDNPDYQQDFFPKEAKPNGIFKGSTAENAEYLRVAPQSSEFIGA
Assay [7] relates to Epidermal growth factor receptor (Homo sapiens), P00533 [L861Q]. The assay is described as §1. The following applies: at 1 µM.
Assay [8] deals with Epidermal growth factor receptor (Homo sapiens), P00533 [T790M]. The assay is described as §1. To be noted: at 1 µM.
Sequence of Epidermal growth factor receptor (Homo sapiens), P00533 [T790M] (P00533 whole entry T790M): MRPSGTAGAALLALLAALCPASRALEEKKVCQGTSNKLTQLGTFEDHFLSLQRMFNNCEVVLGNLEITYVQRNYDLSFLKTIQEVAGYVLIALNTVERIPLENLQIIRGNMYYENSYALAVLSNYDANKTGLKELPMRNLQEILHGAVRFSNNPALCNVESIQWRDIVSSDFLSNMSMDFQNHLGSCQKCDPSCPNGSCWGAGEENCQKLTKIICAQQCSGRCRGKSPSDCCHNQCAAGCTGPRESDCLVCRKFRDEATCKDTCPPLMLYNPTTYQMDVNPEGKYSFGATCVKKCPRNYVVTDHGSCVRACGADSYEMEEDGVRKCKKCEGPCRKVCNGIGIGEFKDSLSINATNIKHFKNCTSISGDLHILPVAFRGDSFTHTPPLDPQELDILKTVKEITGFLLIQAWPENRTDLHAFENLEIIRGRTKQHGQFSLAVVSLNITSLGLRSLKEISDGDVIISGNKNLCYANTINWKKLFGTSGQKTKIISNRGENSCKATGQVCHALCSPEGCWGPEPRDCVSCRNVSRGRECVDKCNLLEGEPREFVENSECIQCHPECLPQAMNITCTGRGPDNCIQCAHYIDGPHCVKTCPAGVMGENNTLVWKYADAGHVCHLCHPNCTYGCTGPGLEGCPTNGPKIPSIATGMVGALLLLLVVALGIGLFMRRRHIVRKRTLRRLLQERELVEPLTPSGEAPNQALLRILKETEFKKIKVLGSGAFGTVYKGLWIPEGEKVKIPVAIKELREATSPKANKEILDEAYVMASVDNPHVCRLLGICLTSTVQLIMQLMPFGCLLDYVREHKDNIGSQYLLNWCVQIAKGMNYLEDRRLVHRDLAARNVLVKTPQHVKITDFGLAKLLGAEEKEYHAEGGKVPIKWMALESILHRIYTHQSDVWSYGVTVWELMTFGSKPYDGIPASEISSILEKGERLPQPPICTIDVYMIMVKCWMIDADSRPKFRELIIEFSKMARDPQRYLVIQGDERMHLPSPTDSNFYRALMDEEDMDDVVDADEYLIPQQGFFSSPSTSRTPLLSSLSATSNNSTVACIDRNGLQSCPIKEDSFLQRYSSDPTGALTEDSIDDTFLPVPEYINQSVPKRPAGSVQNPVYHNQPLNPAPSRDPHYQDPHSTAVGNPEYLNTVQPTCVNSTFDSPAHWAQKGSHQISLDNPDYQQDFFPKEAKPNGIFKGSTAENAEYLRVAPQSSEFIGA
Assay [9] relates to Epidermal growth factor receptor (Homo sapiens), P00533 [L858R,T790M]. The assay is described as §1. To be noted: at 1 µM.
Sequence of Epidermal growth factor receptor (Homo sapiens), P00533 [L858R,T790M] (P00533 whole entry T790M/L858R, looked up): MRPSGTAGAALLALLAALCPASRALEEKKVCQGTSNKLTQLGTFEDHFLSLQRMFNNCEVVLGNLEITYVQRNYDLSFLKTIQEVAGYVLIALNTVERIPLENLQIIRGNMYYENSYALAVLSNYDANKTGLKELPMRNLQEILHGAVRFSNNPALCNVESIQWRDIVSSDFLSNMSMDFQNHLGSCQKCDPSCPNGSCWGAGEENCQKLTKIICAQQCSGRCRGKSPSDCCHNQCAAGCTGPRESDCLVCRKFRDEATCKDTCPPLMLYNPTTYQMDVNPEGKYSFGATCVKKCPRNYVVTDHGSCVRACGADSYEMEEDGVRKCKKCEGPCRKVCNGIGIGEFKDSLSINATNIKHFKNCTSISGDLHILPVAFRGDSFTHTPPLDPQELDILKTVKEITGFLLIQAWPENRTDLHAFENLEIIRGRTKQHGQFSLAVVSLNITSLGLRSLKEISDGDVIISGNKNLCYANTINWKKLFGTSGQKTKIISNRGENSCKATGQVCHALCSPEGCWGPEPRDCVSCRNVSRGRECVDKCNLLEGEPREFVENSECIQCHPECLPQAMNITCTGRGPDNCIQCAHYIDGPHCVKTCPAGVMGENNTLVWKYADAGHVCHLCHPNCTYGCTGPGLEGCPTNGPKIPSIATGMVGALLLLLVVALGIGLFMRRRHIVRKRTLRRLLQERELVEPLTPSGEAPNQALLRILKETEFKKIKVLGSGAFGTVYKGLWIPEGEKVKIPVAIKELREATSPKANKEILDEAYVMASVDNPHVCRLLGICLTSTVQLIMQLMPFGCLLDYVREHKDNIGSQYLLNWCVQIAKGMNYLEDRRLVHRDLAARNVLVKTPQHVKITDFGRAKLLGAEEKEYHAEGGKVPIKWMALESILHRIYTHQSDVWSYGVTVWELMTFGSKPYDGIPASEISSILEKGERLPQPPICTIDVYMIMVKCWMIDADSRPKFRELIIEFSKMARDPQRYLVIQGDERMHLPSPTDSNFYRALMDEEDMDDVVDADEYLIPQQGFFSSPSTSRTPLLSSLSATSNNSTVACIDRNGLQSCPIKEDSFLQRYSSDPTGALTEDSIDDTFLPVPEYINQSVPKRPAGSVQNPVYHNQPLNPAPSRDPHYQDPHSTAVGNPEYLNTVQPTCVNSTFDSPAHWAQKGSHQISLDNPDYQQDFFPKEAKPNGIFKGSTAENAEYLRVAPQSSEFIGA
Assay [10] has as its target Cyclin-dependent kinase 7 (Homo sapiens, UniProt P50613). The assay can be described thus: Selectivity interaction (KinomeScan (DiscoverX)) EUB0001049a CDK7. To be noted: at 1 µM.
Assay [11] concerns the target T1, Homeodomain-interacting protein kinase 4 (Homo sapiens) (UniProt Q8NE63).
T1 sequence (whole entry): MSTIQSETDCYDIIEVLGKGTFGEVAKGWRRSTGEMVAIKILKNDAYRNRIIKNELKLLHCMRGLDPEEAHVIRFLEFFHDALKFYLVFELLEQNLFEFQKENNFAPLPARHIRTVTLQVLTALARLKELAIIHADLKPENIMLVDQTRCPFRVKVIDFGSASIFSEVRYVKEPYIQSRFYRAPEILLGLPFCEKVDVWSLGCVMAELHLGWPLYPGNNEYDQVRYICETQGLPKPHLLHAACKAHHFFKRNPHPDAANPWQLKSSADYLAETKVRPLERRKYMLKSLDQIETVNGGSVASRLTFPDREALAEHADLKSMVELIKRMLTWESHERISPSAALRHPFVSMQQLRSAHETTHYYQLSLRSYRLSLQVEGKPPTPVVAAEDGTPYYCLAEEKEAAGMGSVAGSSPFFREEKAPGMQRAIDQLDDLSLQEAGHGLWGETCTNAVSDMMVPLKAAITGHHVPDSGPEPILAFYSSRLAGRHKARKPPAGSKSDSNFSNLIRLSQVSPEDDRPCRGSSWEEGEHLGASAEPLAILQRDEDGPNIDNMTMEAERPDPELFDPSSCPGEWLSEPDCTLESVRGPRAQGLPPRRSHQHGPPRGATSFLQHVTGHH
The experiment in a line: Selectivity interaction (KinomeScan (DiscoverX)) EUB0001049a HIPK4. To be noted: at 1 µM.

In assay [12] the target is Ribosomal protein S6 kinase beta-1 (Homo sapiens, UniProt P23443). The assay can be described thus: Selectivity interaction (KinomeScan (DiscoverX)) EUB0000695a RPS6KB1. To be noted: at 100 nM.
Sequence of Ribosomal protein S6 kinase beta-1 (P23443 whole entry, looked up): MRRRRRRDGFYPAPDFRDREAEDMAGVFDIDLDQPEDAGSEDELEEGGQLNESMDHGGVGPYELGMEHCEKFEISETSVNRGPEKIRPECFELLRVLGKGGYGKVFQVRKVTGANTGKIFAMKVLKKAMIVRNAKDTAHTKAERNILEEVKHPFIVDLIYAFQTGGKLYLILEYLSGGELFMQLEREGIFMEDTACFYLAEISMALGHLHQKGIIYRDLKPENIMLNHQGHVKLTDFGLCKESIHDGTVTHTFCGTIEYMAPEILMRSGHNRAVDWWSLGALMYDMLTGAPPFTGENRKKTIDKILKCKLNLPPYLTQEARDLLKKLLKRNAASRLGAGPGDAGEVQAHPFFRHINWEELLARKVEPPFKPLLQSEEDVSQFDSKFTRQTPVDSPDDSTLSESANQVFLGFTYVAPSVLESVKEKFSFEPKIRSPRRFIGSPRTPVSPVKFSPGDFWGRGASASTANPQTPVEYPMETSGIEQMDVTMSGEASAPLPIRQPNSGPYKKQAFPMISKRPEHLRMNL
Assay [13] addresses T2, Serine/threonine-protein kinase DCLK2 (Homo sapiens) (UniProt Q8N568).
T2 sequence (whole entry): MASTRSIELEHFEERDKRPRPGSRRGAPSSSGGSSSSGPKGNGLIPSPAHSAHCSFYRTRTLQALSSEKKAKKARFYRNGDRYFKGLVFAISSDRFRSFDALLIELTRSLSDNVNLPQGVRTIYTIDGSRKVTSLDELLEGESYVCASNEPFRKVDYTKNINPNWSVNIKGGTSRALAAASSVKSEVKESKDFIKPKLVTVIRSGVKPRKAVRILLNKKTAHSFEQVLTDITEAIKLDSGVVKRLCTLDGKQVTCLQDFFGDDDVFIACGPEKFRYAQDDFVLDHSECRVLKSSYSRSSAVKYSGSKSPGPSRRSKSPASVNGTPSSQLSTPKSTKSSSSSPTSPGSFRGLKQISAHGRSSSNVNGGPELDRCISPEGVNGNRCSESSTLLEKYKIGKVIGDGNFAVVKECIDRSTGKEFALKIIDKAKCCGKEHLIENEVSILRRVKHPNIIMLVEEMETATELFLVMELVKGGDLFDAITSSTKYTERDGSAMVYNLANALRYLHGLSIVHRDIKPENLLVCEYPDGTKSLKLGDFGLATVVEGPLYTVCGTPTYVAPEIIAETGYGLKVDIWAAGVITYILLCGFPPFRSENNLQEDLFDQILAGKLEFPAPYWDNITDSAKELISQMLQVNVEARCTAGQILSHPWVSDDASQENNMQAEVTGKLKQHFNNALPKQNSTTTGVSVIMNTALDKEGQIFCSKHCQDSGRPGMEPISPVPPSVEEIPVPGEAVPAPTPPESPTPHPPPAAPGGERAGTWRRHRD
The assay can be described thus: Selectivity interaction (ProQinase) EUB0000171b DCLK2.

Assay [14] deals with Interleukin-1 receptor-associated kinase 1 (Homo sapiens) (UniProt P51617). The assay can be described thus: Selectivity interaction (KinomeScan (DiscoverX)) EUB0000092b IRAK1. The following applies: at 10 µM.
Assay [15] addresses Ribosomal protein S6 kinase alpha-1 (Homo sapiens, UniProt Q15418). The experiment in a line: Selectivity interaction (KinomeScan (DiscoverX)) EUB0000595a RPS6KA1. The following applies: at 10 µM.
Assay [16] has as its target T3, Megakaryocyte-associated tyrosine-protein kinase (Homo sapiens) (UniProt P42679).
T3 sequence (whole entry): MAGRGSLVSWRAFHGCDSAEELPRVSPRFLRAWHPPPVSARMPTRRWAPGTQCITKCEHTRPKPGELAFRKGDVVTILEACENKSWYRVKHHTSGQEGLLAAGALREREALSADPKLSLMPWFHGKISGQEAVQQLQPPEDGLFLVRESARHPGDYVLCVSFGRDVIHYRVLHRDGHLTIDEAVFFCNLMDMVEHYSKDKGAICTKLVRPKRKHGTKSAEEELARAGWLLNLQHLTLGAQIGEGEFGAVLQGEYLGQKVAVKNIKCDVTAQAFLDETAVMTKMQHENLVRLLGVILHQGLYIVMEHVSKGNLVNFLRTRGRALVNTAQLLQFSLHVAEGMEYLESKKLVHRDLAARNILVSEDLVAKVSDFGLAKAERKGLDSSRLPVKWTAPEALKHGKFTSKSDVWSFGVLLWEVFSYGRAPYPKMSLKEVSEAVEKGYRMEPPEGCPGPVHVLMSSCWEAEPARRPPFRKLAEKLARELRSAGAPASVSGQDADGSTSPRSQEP
The experiment in a line: Selectivity interaction (KinomeScan (DiscoverX)) EUB0000595a MATK. To be noted: at 10 µM.

Sequence of Fibroblast growth factor receptor 1 (Homo sapiens), P11362 [V561M] (P11362 whole entry V561M): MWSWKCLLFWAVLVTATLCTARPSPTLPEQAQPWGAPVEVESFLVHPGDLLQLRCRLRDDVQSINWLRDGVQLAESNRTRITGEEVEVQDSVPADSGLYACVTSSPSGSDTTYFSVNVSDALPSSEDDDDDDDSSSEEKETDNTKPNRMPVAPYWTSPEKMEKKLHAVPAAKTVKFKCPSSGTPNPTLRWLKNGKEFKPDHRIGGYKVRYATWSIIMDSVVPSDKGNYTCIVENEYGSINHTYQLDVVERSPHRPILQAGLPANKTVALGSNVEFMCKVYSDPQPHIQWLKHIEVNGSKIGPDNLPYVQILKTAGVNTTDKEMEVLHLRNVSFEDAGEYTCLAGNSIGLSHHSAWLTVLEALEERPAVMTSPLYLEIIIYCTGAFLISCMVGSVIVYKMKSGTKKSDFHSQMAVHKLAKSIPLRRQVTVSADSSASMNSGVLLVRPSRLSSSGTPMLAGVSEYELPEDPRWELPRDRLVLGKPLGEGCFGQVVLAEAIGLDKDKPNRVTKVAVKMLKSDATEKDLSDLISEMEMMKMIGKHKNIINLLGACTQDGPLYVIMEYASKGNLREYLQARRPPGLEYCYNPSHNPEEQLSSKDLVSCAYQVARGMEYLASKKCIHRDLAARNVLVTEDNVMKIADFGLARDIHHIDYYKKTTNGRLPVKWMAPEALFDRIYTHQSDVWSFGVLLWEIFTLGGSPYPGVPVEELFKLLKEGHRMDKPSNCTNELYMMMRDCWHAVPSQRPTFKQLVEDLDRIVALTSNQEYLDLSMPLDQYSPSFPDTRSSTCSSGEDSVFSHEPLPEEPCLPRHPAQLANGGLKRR

With `Cn1cc(-n2cnc3c(NCc4nc5cc(Cl)c(Cl)cc5[nH]4)nc(N4CCOCC4)nc32)cn1`, in assay [1], the % of inhibition was -8.96%.

As for `N#Cc1cccc(-c2c[nH]c3ncnc(N4CCOCC4)c23)c1`, the % of control in assay [2] is 84%; in [3] it was 78%; in assay [4], 100%; in assay [5] it was 77%; in assay [6], 100%; in assay [7], 86%. Further, the % of control is 81% in assay [8] and 100% in assay [9].

As for `COc1cc(Nc2nc(C)cc(-c3cnn4nc(OC)ccc34)n2)cc(C(F)(F)F)c1`, the % of control stood at 73% in [10] and 92% in assay [11].

Compound `Cc1cc(F)c(C(=O)Nc2cccc(-c3nncn3C(C)C)n2)cc1-n1cnc(C2CC2)c1` displayed a % of control in [12] of 100%.

Regarding `C=CC(=O)Nc1cccc(C(=O)Nc2ccc(Nc3cc(-c4[nH]c(SC)nc4C)ccn3)cc2)c1`, the % of control in assay [13] (at 1 µM) amounted to 95%; in assay [13] (at 5 µM), 94%.

Compound `CCC(=O)N1CCN(c2ccc(-n3c(=O)ccc4cnc5ccc(-c6cnc7ccccc7c6)cc5c43)cc2C(F)(F)F)CC1` registered a % of control in assay [14] of 100%.

Take `COCC(=O)NC/C=C/c1ccc2ncnc(Nc3ccc(Oc4ccc(C)nc4)c(C)c3)c2c1` [CP-724714]: the % of control in assay [15] came out at 73%; in assay [16], 100%.
